Test results published in patent US20210267197A1, “PEPTIDES SIMILAR TO THE NATURAL PEPTAIBOL TRICHOGIN GA IV WITH PHYTOSANITARY ACTIVITIES” (UNIVERSITA' DEGLI STUDI DI PADOVA, priority 2018, published 2021).

Tests used:
Penicillium digitatum = test: In vitro inhibition of fungal spore germination, Penicillium digitatum; format: cell-based; conditions: for Concentration effective in vitro in inhibiting the germination of fungal spores with respect to the untreated control for at least 3 days: Penicillium digitatum; for Time for which spore germination of P. digitatum is inhibited: peptide at 15 μM, limited by duration of the experiment
Pyricularia oryzae = format: cell-based
Penicillium italicum = test: In vitro inhibition of fungal spore germination, Penicillium italicum; format: cell-based; conditions: for Concentration effective in vitro in inhibiting the germination of fungal spores with respect to the untreated control for at least 3 days: Penicillium italicum; for Time for which spore germination of Penicillium italicum is inhibited: peptide at 15 μM, limited by duration of the experiment
Penicillium expansum = test: In vitro inhibition of fungal spore germination, Penicillium expansum; format: cell-based; conditions: for Concentration effective in vitro in inhibiting the germination of fungal spores with respect to the untreated control for at least 3 days: Penicillium expansum; for Time for which spore germination of P. expansum is inhibited: peptide at 15 μM, limited by duration of the experiment
Botrytis cinerea [1] = test: Bean leaves inoculated with Botrytis cinerea; format: in vivo
Botrytis cinerea [2] = test: B. cinerea spore viability / germination assay with resazurin; format: cell-based; conditions: for Concentration effective in vitro in inhibiting the germination of fungal spores with respect to the untreated control for at least 3 days: Botrytis cinerea; for Time for which spore germination of B. cinerea is inhibited: limited by duration of the experiment
Plasmopara viticola = conditions: for Prevention of development of the disease and production of sporangia of P. viticola: 50 μM aqueous solution, disks of vine leaves
Procedure: The histogram represents the average incidence (±standard error) of infections from P. viticola 12 days after inoculation obtained by performing at least 3 independent biological replicates. […] The incidence is calculated as a percentage ratio of the leaf disks showing the sporulation of the pathogen compared to the total of inoculated disks.
Glera vine leaves were inoculated with sporangia from the oomycete Plasmopara viticola, the causal agent of vine peronospora. The disks infected and then treated with peptides were incubated at 20/22° C. in conditions of high humidity (>92% RH) and in the dark (optimal conditions for the development of the disease) until the end of the experiment.

Fusarium graminearum = format: cell-based
B. cinerea = test: Rot symptoms from B. cinerea on vine leaves; format: in vivo, Botrytis cinerea; conditions: 50 μM

Substance: 1-octanoyl-Aib-Lys(HCl)-Leu-Aib-Lys(HCl)-Gly-Leu-Aib-Gly-Ile-Lol [Peptide K25]
- Concentration effective in vitro in inhibiting the germination of fungal spores with respect to the untreated control for at least 3 days (Penicillium digitatum): 15 µM
- Time for which spore germination of P. digitatum is inhibited (Penicillium digitatum): of Penicillium digitatum for more than 5 days

Substance: 1-octanoyl-Aib-Gly-Leu-Aib-Lys(HCl)-Lys(HCl)-Leu-Aib-Gly-Ile-Lol [PEP4]
- Concentration effective in vitro in inhibiting the germination of fungal spores with respect to the untreated control for at least 3 days (Pyricularia oryzae): 15 µM
- Inhibition of spore germination of Pyricularia oryzae (Pyricularia oryzae; 15 μM): effectively inhibit the spore germination
- Concentration effective in vitro in inhibiting the germination of fungal spores with respect to the untreated control for at least 3 days (Penicillium italicum): 15 µM
- Concentration effective in vitro in inhibiting the germination of fungal spores with respect to the untreated control for at least 3 days (Penicillium expansum): 15 µM
- Concentration effective in vitro in inhibiting the germination of fungal spores with respect to the untreated control for at least 3 days (Penicillium digitatum): 15 µM
- Protection of bean leaves against infection by Botrytis cinerea (Botrytis cinerea [1]; 50 μM aqueous solution, for at least seven days (duration of the experiment)): protects the bean leaves against the infection caused by Botrytis cinerea
- Germination of conidia of B. cinerea (Botrytis cinerea [2]; 50 μM, conidia 5×10^5/ml in PDB): germination of the conidia is not observed
- Concentration effective in vitro in inhibiting the germination of fungal spores with respect to the untreated control for at least 3 days (Botrytis cinerea [2]): 3 µM
- Time for which spore germination of B. cinerea is inhibited (Botrytis cinerea [2]; peptide at 3 μM): at least 7 days
- Incidence of the disease (leaf disks showing sporulation / total inoculated disks) (Plasmopara viticola; 30 μM, 12 days after inoculation): < 20%
- Prevention of development of the disease and production of sporangia of P. viticola (Plasmopara viticola): almost completely prevents both the development of the disease and the production of sporangia
- Time of protection against P. viticola (no disease / no sporangia) (Plasmopara viticola; 50 μM, limited by duration of the experiment): 15 days

Substance: 1-octanoyl-Aib-Gly-Leu-Aib-Gly-Lys(HCl)-Leu-Aib-Gly-Ile-Lol [Peptide K6-Lol]
- Concentration effective in vitro in inhibiting the germination of fungal spores with respect to the untreated control for at least 3 days (Penicillium expansum): 15 µM
- Concentration effective in vitro in inhibiting the germination of fungal spores with respect to the untreated control for at least 3 days (Penicillium digitatum): 15 µM
- Concentration effective in vitro in inhibiting the germination of fungal spores with respect to the untreated control for at least 3 days (Botrytis cinerea [2]): 15 µM

Substance: 1-octanoyl-Aib-Gly-Leu-Aib-Lys(HCl)-Lys(HCl)-Leu-Leu-NH2 [PEP4-corto1-rink]
- Concentration effective in vitro in inhibiting the germination of fungal spores with respect to the untreated control for at least 3 days (Penicillium italicum): 15 µM
- Time for which spore germination of Penicillium italicum is inhibited (Penicillium italicum): for 6 days (duration of the experiment)
- Time for which spore germination of Penicillium italicum is inhibited (Penicillium italicum; listed as Pep4-cortol-rink): 6 days
- Time for which spore germination of P. expansum is inhibited (Penicillium expansum): for 6 days (duration of the experiment)
- Time for which spore germination of P. expansum is inhibited (Penicillium expansum; listed as Pep4-cortol-rink): 6 days
- Time for which spore germination of P. digitatum is inhibited (Penicillium digitatum): for 6 days (duration of the experiment)
- Time for which spore germination of P. digitatum is inhibited (Penicillium digitatum; listed as Pep4-cortol-rink): 6 days

Substance: 1-octanoyl-Aib-Gly-Leu-Aib-Lys(HCl)-Lys(HCl)-Leu-Lol [PEP4-corto]
- Concentration effective in vitro in inhibiting the germination of fungal spores with respect to the untreated control for at least 3 days (Botrytis cinerea [2]): 3 µM
- Prevention of development of the disease and production of sporangia of P. viticola (Plasmopara viticola): almost completely prevents the development of the disease and the production of sporangia

Substance: 1-octanoyl-Aib-Lys(HCl)-Lys(HCl)-Leu-Aib-Gly-Ile-Leu-NH2 [PEP4-corto2-rink]
- Concentration effective in vitro in inhibiting the germination of fungal spores with respect to the untreated control for at least 3 days (Penicillium italicum): 15 µM
- Time for which spore germination of Penicillium italicum is inhibited (Penicillium italicum; listed as Pep4-corto2-rink): 15 days
- Time for which spore germination of P. expansum is inhibited (Penicillium expansum; listed as Pep4-corto2-rink): 15 days
- Time for which spore germination of P. digitatum is inhibited (Penicillium digitatum; listed as Pep4-corto2-rink): 15 days
- Time for which spore germination of B. cinerea is inhibited (Botrytis cinerea [2]; peptide at 15 μM, listed as Pep4-corto2-rink): 8 days

Substance: 1-octanoyl-Aib-Gly-Leu-Aib-Lys(HCl)-Lys(HCl)-Leu-Aib-Gly-Ile-Leu-NH2 [PEP4-rink]
- Concentration effective in vitro in inhibiting the germination of fungal spores with respect to the untreated control for at least 3 days (Fusarium graminearum): 15 µM
- Concentration effective in vitro in inhibiting the germination of fungal spores with respect to the untreated control for at least 3 days (Penicillium expansum): 15 µM
- Concentration effective in vitro in inhibiting the germination of fungal spores with respect to the untreated control for at least 3 days (Penicillium digitatum): 15 µM
- Reduction in the incidence of rot symptoms from B. cinerea on bean leaves (Botrytis cinerea [1]; 15 μM, 7 days after inoculation): 90%
- Reduction in the incidence of B. cinerea (rot symptoms) on bean leaves (Botrytis cinerea [1]; 50 μM): 95%
- Concentration effective in vitro in inhibiting the germination of fungal spores with respect to the untreated control for at least 3 days (Botrytis cinerea [2]): 3 µM
- Time for which spore germination of B. cinerea is inhibited (Botrytis cinerea [2]; peptide at 3 μM): at least 14 days
- Time for which spore germination of B. cinerea is inhibited (Botrytis cinerea [2]; peptide at 15 μM): at least 21 days
- Reduction in the incidence of rot symptoms from B. cinerea on vine leaves (B. cinerea): 70%
